Reference: paper PMC8774190, “Characterization and Modification of Light-Sensitive Phosphodiesterases from Choanoflagellates” (Biomolecules, 2022)

System: T1, CfRhoPDE1
T1 construct: full-length with N-terminal YFP tag kept; gene codon-optimised to Mus musculus, pGEMHE vector; Xenopus oocyte membrane fraction; all-trans retinal supplied
Assay: cGMP hydrolysis by oocyte membranes, chemiluminescent immunoassay, Michaelis-Menten fit
Format: biochemical, Choanoeca flexa
Details: dark; pH 7.3, 5 mM MgCl2, 100 mM NaCl, 5 mM DTT; 1-100 μM cGMP

Km: ~15 µM
Compound: Nc1nc2c(ncn2[C@@H]2O[C@@H]3COP(=O)(O)O[C@H]3[C@H]2O)c(=O)[nH]1 [cGMP]
